From US20100216779A1 (GLAXOSMITHKLINE LLC, priority 2007, published 2010)

Key:
Type in all cases: cell-based
[1] = test system: COLO205 (colon); test: Inhibition of cell proliferation, CellTiter-Glo, COLO205; conditions: Homo sapiens, COLO 205, 72 h
Summary of the method: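 Exponentially growing COLO205 cells in medium with 10% FBS were plated below 2000 cells/well at 37 °C, 5% CO2. Untreated wells served as controls.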

[2] = test system: NCI-H929 (multiple myeloma); test: Inhibition of cell proliferation, CellTiter-Glo, NCI-H929; conditions: Homo sapiens, 72 h
Summary of the method: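 Cells were grown in medium with 10% FBS at 37° C, 5% CO2. Cell number was read as CellTiter-Glo luminescence (cellular ATP), with untreated wells as control.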

[3] = target: T1, human IGF-1R (NIH-3T3 cells over expressing human IGF-1R) (Homo sapiens, UniProt P08069); test: IGF-1R cellular autophosphorylation (DELFIA); conditions: IGF-1 stimulated
T1 construct: expressed in transfected cells; host or cells: NIH-3T3 (mouse fibroblasts)
Summary of the method: (§1)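 Autophosphorylation of IGF-1R or IR is measured in NIH-3T3 lines overexpressing each human receptor after 2 h compound pretreatment and a 15 min ligand challenge (IGF-1 30 ng/mL; insulin 3 ug/mL). Fluorescence is normalised to 100% stimulation.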

[4] = target: T2, IR (NIH-3T3 cells over expressing human IGF-1R or IR) (Homo sapiens, UniProt P06213); test: IR cellular autophosphorylation (DELFIA); conditions: NIH-3T3 cells over expressing IR, insulin stimulated
T2 construct: expressed in transfected cells; host or cells: NIH-3T3 (mouse fibroblasts)
Summary of the method: as §1

T2 sequence (P06213 28-1382): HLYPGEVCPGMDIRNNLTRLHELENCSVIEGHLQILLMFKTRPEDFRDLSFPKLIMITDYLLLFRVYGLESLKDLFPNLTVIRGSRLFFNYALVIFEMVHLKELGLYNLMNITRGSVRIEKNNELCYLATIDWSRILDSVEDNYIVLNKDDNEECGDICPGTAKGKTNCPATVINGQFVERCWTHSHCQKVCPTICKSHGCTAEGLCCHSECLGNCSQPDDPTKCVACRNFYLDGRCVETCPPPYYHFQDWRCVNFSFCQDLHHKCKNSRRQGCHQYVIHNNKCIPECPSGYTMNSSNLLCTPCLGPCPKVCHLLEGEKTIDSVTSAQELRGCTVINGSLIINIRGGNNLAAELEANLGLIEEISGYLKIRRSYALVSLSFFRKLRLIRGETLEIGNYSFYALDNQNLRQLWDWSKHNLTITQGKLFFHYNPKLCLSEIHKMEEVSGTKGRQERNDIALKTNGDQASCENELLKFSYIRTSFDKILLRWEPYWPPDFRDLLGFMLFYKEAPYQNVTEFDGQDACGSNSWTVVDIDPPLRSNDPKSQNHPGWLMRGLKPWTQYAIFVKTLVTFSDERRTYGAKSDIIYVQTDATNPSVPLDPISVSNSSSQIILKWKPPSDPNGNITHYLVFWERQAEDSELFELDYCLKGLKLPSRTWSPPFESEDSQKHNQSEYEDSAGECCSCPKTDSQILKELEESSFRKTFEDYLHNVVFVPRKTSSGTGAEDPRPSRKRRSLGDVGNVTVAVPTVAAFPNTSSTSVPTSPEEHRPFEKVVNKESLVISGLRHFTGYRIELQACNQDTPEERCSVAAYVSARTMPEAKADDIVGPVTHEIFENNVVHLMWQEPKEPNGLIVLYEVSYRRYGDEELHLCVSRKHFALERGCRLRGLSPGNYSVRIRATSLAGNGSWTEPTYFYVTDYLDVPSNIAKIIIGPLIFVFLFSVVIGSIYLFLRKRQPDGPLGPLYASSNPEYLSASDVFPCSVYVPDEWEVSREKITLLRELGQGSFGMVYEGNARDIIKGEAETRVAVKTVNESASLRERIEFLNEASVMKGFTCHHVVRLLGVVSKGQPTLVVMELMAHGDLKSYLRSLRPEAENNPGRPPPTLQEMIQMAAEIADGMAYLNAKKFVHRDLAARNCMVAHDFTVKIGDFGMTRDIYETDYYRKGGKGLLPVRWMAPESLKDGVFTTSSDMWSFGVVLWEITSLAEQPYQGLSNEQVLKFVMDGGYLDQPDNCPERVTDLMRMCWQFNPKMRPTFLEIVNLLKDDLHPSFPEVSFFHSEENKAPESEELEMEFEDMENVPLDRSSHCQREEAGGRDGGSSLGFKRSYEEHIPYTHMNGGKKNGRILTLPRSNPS
T1 sequence (P08069 31-1367): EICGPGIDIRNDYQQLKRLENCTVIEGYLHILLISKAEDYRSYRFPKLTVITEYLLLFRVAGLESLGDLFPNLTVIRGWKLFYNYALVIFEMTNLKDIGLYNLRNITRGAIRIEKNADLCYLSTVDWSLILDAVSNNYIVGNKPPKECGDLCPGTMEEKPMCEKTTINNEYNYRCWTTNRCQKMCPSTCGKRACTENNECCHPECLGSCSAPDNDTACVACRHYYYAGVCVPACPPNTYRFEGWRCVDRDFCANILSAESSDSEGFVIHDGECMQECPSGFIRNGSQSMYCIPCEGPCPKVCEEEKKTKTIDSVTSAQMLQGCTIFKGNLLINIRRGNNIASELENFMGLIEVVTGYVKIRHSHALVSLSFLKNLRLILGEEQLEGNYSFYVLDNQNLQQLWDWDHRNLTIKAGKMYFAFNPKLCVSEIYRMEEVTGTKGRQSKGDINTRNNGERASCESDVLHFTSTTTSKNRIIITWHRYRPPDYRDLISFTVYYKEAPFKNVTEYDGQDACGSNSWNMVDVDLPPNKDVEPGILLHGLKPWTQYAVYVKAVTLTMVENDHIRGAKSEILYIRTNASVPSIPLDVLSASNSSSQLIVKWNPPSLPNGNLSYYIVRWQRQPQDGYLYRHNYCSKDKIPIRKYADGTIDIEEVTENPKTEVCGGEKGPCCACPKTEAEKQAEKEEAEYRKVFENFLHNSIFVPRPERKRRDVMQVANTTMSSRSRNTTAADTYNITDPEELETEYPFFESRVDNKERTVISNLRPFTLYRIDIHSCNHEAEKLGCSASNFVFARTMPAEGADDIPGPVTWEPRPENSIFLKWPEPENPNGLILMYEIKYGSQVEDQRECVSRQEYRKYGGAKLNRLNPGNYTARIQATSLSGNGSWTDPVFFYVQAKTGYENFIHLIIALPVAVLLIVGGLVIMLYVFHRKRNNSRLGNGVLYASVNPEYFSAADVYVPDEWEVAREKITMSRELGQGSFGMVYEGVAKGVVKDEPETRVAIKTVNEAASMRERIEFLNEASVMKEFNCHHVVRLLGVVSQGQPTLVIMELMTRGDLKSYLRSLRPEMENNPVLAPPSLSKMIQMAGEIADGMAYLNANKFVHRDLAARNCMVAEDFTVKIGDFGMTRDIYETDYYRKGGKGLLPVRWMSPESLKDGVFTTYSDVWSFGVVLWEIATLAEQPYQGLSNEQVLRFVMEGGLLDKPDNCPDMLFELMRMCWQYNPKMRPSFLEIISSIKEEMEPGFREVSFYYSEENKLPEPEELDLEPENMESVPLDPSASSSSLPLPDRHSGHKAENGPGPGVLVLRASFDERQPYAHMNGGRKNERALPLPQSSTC

| Compound | IC50 [1] | IC50 [2] | IC50 [3] | IC50 [4] |
| --- | --- | --- | --- | --- |
| CCOc1ccc(-c2nc3ccccn3c2-c2ccnc(Nc3ccc(N4CCC(N5CCC(CCS(C)(=O)=O)CC5)CC4)cc3OC)n2)cc1C(=O)Nc1c(F)cccc1F [Example 103, N-(2,6-difluorophenyl)-2-(ethyloxy)-5-(3-{2-[(2-(methyloxy)-4-{4-[2-(methylsulfonyl)ethyl]-1,4′-bipiperidin-1′-yl}phenyl)amino]-4-pyrimidinyl}imidazo[1,2-a]pyridin-2-yl)benzamide] | 250 to 1000 nM | < 250 nM | < 100 nM | < 100 nM |
| COc1cc(N2CCC(N3CCN(S(C)(=O)=O)CC3)CC2)c(C)cc1Nc1nccc(-c2c(-c3cccc(C(=O)Nc4c(F)cccc4F)c3)nc3ccccn23)n1 [Example 245, N-(2,6-difluorophenyl)-3-(3-{2-[(5-methyl-2-(methyloxy)-4-{4-[4-(methylsulfonyl)-1-piperazinyl]-1-piperidinyl}phenyl)amino]-4-pyrimidinyl}imidazo[1,2-a]pyridin-2-yl)benzamide] | 250 to 1000 nM | < 250 nM | < 100 nM | < 100 nM |
| COc1cc(N2CCC(N3CCN4CCOC[C@@H]4C3)CC2)ccc1Nc1nccc(-c2c(-c3ccc(OC)c(C(=O)Nc4c(F)cccc4F)c3)nc3ccccn23)n1 [Example 88, N-(2,6-difluorophenyl)-5-[3-(2-{[4-{4-[(9aS)-hexahydropyrazino[2,1-c][1,4]oxazin-8(1H)-yl]-1-piperidinyl}-2-(methyloxy)phenyl]amino}-4-pyrimidinyl)imidazo[1,2-a]pyridin-2-yl]-2-(methyloxy)benzamide] | > 1000 nM | < 250 nM | < 100 nM | < 100 nM |
| CCOc1ccc(-c2nc3ccccn3c2-c2ccnc(Nc3ccc(N4CCC(N5CCCCC5)CC4)c(C)c3OC)n2)cc1C(=O)Nc1c(F)cccc1F [Example 56, 5-[3-(2-{[4-(1,4′-bipiperidin-1′-yl)-3-methyl-2-(methyloxy)phenyl]amino}-4-pyrimidinyl)imidazo[1,2-a]pyridin-2-yl]-N-(2,6-difluorophenyl)-2-(ethyloxy)benzamide] | > 1000 nM | 250 to 1000 nM | 100 to 500 nM | 100 to 500 nM |
| CS(=O)(=O)CCN1CCN(C2CCN(c3ccc(Nc4nccc(-c5c(-c6cccc(C(=O)Nc7c(F)cccc7F)c6)nc6ccccn56)n4)c(OCC(F)(F)F)c3)CC2)CC1 [Example 120, N-(2,6-difluorophenyl)-3-{3-[2-({4-(4-{4-[2-(methylsulfonyl)ethyl]-1-piperazinyl}-1-piperidinyl)-2-[(2,2,2-trifluoroethyl)oxy]phenyl}amino)-4-pyrimidinyl]imidazo[1,2-a]pyridin-2-yl}benzamide] | 250 to 1000 nM | < 250 nM | < 100 nM | < 100 nM |
| COc1cc(N2CCC(N3CCN(CCF)CC3)CC2)ccc1Nc1nccc(-c2c(-c3ccc(OC)c(C(=O)Nc4c(F)cccc4F)c3)nc3ccccn23)n1 [Example 61, N-(2,6-difluorophenyl)-5-[3-(2-{[4-{4-[4-(2-fluoroethyl)-1-piperazinyl]-1-piperidinyl}-2-(methyloxy)phenyl]amino}-4-pyrimidinyl)imidazo[1,2-a]pyridin-2-yl]-2-(methyloxy)benzamide] | 250 to 1000 nM | < 250 nM | < 100 nM | < 100 nM |
| COCCN1CCN(c2cc(OC)c(Nc3nccc(-c4c(-c5cccc(C(=O)Nc6c(F)cccc6F)c5)nc5ccccn45)n3)cc2C)CC1 [Example 243, N-(2,6-difluorophenyl)-3-(3-{2-[(5-methyl-2-(methyloxy)-4-{4-[2-(methyloxy)ethyl]-1-piperazinyl}phenyl)amino]-4-pyrimidinyl}imidazo[1,2-a]pyridin-2-yl)benzamide] | 250 to 1000 nM | < 250 nM | < 100 nM | < 100 nM |
| COc1cc(C2CCN(CCS(C)(=O)=O)CC2)c(C)cc1Nc1nccc(-c2c(-c3ccc(OC)c(C(=O)Nc4c(F)cccc4F)c3)nc3ccccn23)n1 [Example 163, N-(2,6-difluorophenyl)-5-(3-{2-[(5-methyl-2-(methyloxy)-4-{1-[2-(methylsulfonyl)ethyl]-4-piperidinyl}phenyl)amino]-4-pyrimidinyl}imidazo[1,2-a]pyridin-2-yl)-2-(methyloxy)benzamide] | 250 to 1000 nM | < 250 nM | < 100 nM | < 100 nM |

The next lines start with the values.

| IC50 [1] | IC50 [2] | IC50 [3] | IC50 [4] | Compound |
| --- | --- | --- | --- | --- |
| 250 to 1000 nM | < 250 nM | < 100 nM | < 100 nM | COc1cc(N2CCC(N3CCN(CCS(C)(=O)=O)CC3)CC2)ccc1Nc1nccc(-c2c(-c3ccc(OC)c(C(=O)Nc4c(F)cccc4F)c3)nc3ccccn23)n1 [Example 65, N-(2,6-difluorophenyl)-2-(methyloxy)-5-[3-(2-{[2-(methyloxy)-4-(4-{4-[2-(methylsulfonyl)-ethyl]-1-piperazinyl}-1-piperidinyl)phenyl]amino}-4-pyrimidinyl)imidazo-[1,2-a]pyridin-2-yl]benzamide] |
| 250 to 1000 nM | 250 to 1000 nM | < 100 nM | 100 to 500 nM | COc1cc(N2CCC(N3CCCN(C)CC3)CC2)ccc1Nc1nccc(-c2c(-c3cccc(C(=O)Nc4c(F)cccc4F)c3)nc3ccccn23)n1 [Example 48, N-(2,6-difluorophenyl)-3-[3-(2-{[4-[4-(4-methylhexahydro-1H-1,4-diazepin-1-yl)-1-piperidinyl}-2-(methyloxy)phenyl]amino}-4-pyrimidinyl)imidazo[1,2-a]pyridin-2-yl]benzamide] |
| 250 to 1000 nM | < 250 nM | < 100 nM | < 100 nM | COc1cc(N2CCC(N3CCN(CCS(C)(=O)=O)CC3)CC2)ccc1Nc1nccc(-c2c(-c3cccc(C(=O)Nc4c(F)cccc4F)c3)nc3ccccn23)n1 [Example 59, N-(2,6-difluorophenyl)-3-[3-(2-{[2-(methyloxy)-4-(4-{4-[2-(methylsulfonyl)ethyl]-1-piperazinyl}-1-piperidinyl)phenyl]amino}-4-pyrimidinyl)imidazo[1,2-a]pyridin-2-yl]benzamide] |
| < 250 nM | < 250 nM | < 100 nM | < 100 nM | CCOc1ccc(-c2nc3ccccn3c2-c2ccnc(Nc3cc(C)c(N4CCC(CCS(C)(=O)=O)CC4)cc3OC)n2)cc1C(=O)Nc1c(F)cccc1F [Example 229, N-(2,6-difluorophenyl)-2-(ethyloxy)-5-(3-{2-[(5-methyl-2-(methyloxy)-4-{4-[2-(methylsulfonyl)ethyl]-1-piperidinyl}phenyl)amino]-4-pyrimidinyl}imidazo[1,2-a]pyridin-2-yl)benzamide] |
| < 250 nM | < 250 nM | < 100 nM | < 100 nM | CCOc1cc(N2CCC(N3CCN(S(C)(=O)=O)CC3)CC2)ccc1Nc1nccc(-c2c(-c3ccc(OCC)c(C(=O)Nc4c(F)cccc4F)c3)nc3ccccn23)n1 [Example 222, N-(2,6-difluorophenyl)-2-(ethyloxy)-5-(3-{2-[(2-(ethyloxy)-4-{4-[4-(methylsulfonyl)-1-piperazinyl]-1-piperidinyl}phenyl)amino]-4-pyrimidinyl}imidazo[1,2-a]pyridin-2-yl)benzamide] |
